For 14 molecules, Ki and IC50 results are on record in patent US20250243194A1, “ANTAGONIST OF ADENOSINE RECEPTORS” (AdoRx Therapeutics Limited, priority 2022, published 2025).

Experiment [1] deals with human Adenosine A1 receptor (Homo sapiens (Human), UniProt P30542). The experiment in a line: Adenosine receptor TR-FRET binding assay (A1). The settings on record: inhibition of binding of 100 nM CA200645; CHO cell membranes; Ki from IC50 by Cheng and Prusoff. How it is done: (§1) All FRET binding experiments were conducted at room temperature in white 384-well plates, in assay binding buffer containing 1× LabMed (Cisbio, France), 100 μg/mL saponin, 1% DMSO and 0.02% pluronic acid. Binding of the fluorescently labelled Adenosine receptor antagonist XAC (CA200645, FRET acceptor) to terbium-labelled A1, A2a, A2b and A3 adenosine receptors (FRET donors) was detected by time-resolved FRET due to the close proximity of the donor and acceptor in a binding event. To investigate the ability of unlabelled test compounds to bind to Adenosine A1, A2a, A2b and A3 receptors, dose response curves were constructed that determined the ability of a range of concentrations to inhibit the binding of 30 nM CA200645 to the A2b receptor and 100 nM CA200645 to the A1, A2a, and A3 receptor.
Chain of human Adenosine A1 receptor (P30542 whole entry): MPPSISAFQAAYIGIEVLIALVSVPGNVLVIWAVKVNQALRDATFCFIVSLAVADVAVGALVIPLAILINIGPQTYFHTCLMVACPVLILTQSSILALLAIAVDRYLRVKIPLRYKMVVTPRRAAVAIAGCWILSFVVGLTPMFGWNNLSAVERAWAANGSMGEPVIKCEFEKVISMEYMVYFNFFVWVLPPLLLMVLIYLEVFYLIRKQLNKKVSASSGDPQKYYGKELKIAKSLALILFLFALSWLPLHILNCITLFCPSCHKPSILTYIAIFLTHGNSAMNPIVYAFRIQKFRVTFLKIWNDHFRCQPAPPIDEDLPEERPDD
(§2) Serial dilution (1:3 dilutions) of test compounds in neat DMSO and transfer of a 400 nL sample of test compound into the assay plate was carried out using the Mosquito (TTP Labtech, UK). The compound samples were incubated for 2 hours at room temperature with a fixed concentration of CA200645 defined for each receptor (see above) and CHO cell membranes containing the human Adenosine A1 (0.5 μg/well), A2a (0.3 μg/well), A2b (1 μg/well) or A3 (1 μg/well) receptor in 40 μL of assay buffer. Total and non-specific binding of CA200645 was determined in the absence and presence of 10 μM XAC, respectively. Following 2 hours incubation, the level of CA200645 binding was detected on a Pherastar FSX (BMG Labtech, Germany) using standard TR-FRET settings. The terbium donor was excited with three laser flashes at a wavelength of 337 nm, and donor and acceptor emission was detected at 620 nm and 665 nm wavelengths, respectively. FRET ratios were obtained by multiplying the acceptor/donor ratio value by 10,000. Specific binding was determined by subtracting the non-specific binding FRET ratio from the total binding FRET ratio. Compound IC50 curves were analysed using GraphPad Prism 7.0 (GraphPad, USA) and Ki affinity values were determined from the obtained IC50 values using the method of Cheng and Prusoff.

For experiment [2], the target named is human Adenosine A2a receptor (Homo sapiens (Human), UniProt P29274). The experiment in a line: Adenosine receptor TR-FRET binding assay (A2a). Conditions: inhibition of binding of 100 nM CA200645; CHO cell membranes; Ki from IC50 by Cheng and Prusoff. On the procedure: as §1, §2
Chain of human Adenosine A2a receptor (P29274 whole entry): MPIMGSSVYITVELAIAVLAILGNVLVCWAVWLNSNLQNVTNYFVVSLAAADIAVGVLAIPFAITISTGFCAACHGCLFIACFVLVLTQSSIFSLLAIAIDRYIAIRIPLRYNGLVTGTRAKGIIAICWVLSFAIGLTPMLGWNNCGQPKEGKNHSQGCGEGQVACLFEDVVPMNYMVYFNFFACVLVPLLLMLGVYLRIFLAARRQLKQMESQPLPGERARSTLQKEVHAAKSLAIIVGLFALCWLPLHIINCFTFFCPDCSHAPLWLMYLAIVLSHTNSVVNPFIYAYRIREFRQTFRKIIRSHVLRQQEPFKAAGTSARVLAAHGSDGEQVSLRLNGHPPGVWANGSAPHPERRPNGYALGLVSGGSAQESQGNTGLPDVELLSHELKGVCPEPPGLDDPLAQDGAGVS
Experiment [3] has as its target human Adenosine A2b receptor (Homo sapiens (Human), UniProt P29275). Description: Adenosine receptor TR-FRET binding assay (A2b). The settings on record: inhibition of binding of 30 nM CA200645; CHO cell membranes; Ki from IC50 by Cheng and Prusoff. How it is done:
as §1, §2
Background: In TR-FRET formats the signal depends on donor and acceptor labels being close together.

The subject of experiment [4] is CD8+ T cells in human whole blood. Description: Measurement of pCREB in CD8+ T cells in human whole blood. Format: cell-based. The settings on record: T-cell, 3 μM NECA, rolipram, FACS. How it is done:
Heparinised human whole blood was pre-incubated at 37° C. with serial dilutions of A2a antagonists for 20 min. and the phosphodiesterase inhibitor rolipram to amplify the pCREB response. The adenosine receptor agonist NECA is then added at a final concentration of 3 μM and following a 60 min incubation the blood is fixed and red blood cells lysed. White blood cells are isolated, permeabilized and stained with directly conjugated fluorescent antibodies to phospho-CREB (Alexa Fluor 488) and CD8 (Alexa Fluor 647) and the level of phospho-CREB in CD8+ T cells is measured by FACS using a BD Accuri C6 Flow Cytometer.

In experiment [5] the test system is immature monocyte-derived dendritic cells (MoDC). The experiment in a line: MoDC pCREB assay. Format: cell-based. Conditions: Homo sapiens, Dendritic cell, CD209+/CD86-low cells, 1 μM NECA, 20 μM rolipram, largely specific to A2B. On the procedure:
Monocytes are isolated from human whole blood using CD14 microbeads (Miltenyi Biotec 130-050-201) and differentiated to immature monocyte-derived dendritic cells (MoDC) by culture for 5 days in Mo-DC Differentiation Medium (Miltenyi Biotec 130-094-812). MoDCs are seeded into fresh medium into U bottomed 96 well culture plates and pre-incubated at 37° C. with serial dilutions of A2A/B antagonists for 15 min. At the same time the cells are co-incubated with the phosphodiesterase inhibitor rolipram (final concentration of 20 μM) to amplify the subsequent pCREB response. Adenosine receptor agonist NECA is then added at 1 μM final concentration, leading to an increase in CREB phosphorylation. Following a 45 min incubation at 37° C., the cells are fixed, permeabilized and stained with directly conjugated fluorescent antibodies to phospho-CREB (Alexa Fluor 488), CD209 (PerCP-Cy5.5) and CD86 (APC). Samples are analysed by FACS to measure fluorescence in corresponding channels, and also forward and Side scatter. The population of CD209+/CD86-low cells corresponding to immature dendritic cells is gated for analysis of pCREB levels.
Approximately 5% of the analysed cells are positive for detection of pCREB in the absence of agonist stimulation, representing the background signalling of all pathways upstream of CREB. Following NECA stimulation this is increased to ˜80% pCREB+ve, and this increase is essentially fully reversible by A2B or dual A2A/B antagonists.
IC50 is represented as the point of inflection of a sigmoidal curve

Experiment [6] has as its target human Adenosine A3 receptor (Homo sapiens (Human), UniProt P0DMS8). The experiment in a line: Adenosine receptor TR-FRET binding assay (A3). The settings on record: inhibition of binding of 100 nM CA200645; CHO cell membranes; Ki from IC50 by Cheng and Prusoff. On the procedure: as §1, §2

Chain of human Adenosine A2b receptor (P29275 whole entry): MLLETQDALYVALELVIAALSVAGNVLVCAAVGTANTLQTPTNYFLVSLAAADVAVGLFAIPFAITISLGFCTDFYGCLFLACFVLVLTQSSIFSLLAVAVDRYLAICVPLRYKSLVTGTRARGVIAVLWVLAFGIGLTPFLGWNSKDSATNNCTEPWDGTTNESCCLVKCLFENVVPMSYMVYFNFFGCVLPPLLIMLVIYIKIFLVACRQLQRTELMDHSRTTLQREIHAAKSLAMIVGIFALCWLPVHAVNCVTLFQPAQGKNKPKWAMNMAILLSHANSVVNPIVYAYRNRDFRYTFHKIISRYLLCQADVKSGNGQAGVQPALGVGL
Chain of human Adenosine A3 receptor (P0DMS8 whole entry): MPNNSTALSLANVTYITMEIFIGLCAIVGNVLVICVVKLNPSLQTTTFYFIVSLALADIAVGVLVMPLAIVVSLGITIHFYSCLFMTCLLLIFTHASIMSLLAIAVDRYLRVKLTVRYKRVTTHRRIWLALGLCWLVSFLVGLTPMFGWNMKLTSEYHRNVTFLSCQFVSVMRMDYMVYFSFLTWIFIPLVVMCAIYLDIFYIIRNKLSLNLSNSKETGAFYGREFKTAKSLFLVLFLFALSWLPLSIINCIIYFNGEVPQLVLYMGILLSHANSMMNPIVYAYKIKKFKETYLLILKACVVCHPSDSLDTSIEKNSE

One may read the Ki as the dissociation constant of the complex between target and ligand, obtained from inhibition or displacement. What is called IC50 is the concentration that gives 50% inhibition. For the molecule `Cc1ncnc2ccc(-c3sc(NC(=O)N4CCC5(CC4)COCCN5)nc3-c3cccc(C#N)c3)cc12` [Example 2, N-[4-(3-Cyanophenyl)-5-(4-methylquinazolin-6-yl)thiazol-2-yl]-4-oxa-1,9-diazaspiro[5.5]undecane-9-carboxamide], the Ki in experiment [1] turned out to be 70 nM; in experiment [2], 0.32 nM; in experiment [3], 2.8 nM. In addition, the IC50 in experiment [4] came to 20 nM; in experiment [5], 3 nM.

Consider `Cc1ncnc2ccc(-c3sc(NC(=O)N4CCC(N5CCNCC5)CC4)nc3-c3cccc(C#N)c3)cc12` [Example 3, N-[4-(3-Cyanophenyl)-5-(4-methylquinazolin-6-yl)thiazol-2-yl]-4-piperazin-1-yl-piperidine-1-carboxamide], for which the Ki was 554 nM in experiment [1], 2.26 nM in experiment [2] and 7.7 nM in experiment [3]. Also, the IC50 in experiment [4] worked out at 70 nM; in experiment [5] it was 6 nM.

On to `Cc1cc(-c2sc(NC(=O)N3CC4(COC4)C3)nc2-c2cccc(C#N)c2)cn2c(C)cnc12` [Example 18, N-[4-(3-Cyanophenyl)-5-(3,8-dimethylimidazo[1,2-a]pyridin-6-yl)thiazol-2-yl]-2-oxa-6-azaspiro[3.3]heptane-6-carboxamide], for which the Ki in experiment [6] was found to be 2630 nM; in experiment [1], 1 nM; in experiment [2], 0.11 nM; in experiment [3], 0.9 nM.

As to `Cn1ccc2c(-c3sc(NC(=O)N4CC5(COC5)C4)nc3-c3cccc(C#N)c3)ccnc21` [Example 21, N-[4-(3-Cyanophenyl)-5-(1-methylpyrrolo[2,3-b]pyridin-4-yl)thiazol-2-yl]-2-oxa-6-azaspiro[3.3]heptane-6-carboxamide], the Ki worked out at 421 nM in experiment [6], 4 nM in experiment [1], 8.33 nM in experiment [2] and 2.6 nM in experiment [3].

With `Cc1cnc2ccc(-c3sc(NC(=O)N4CC5(COC5)C4)nc3-c3cccc(C#N)c3)cn12` [Example 22, N-[4-(3-Cyanophenyl)-5-(3-methylimidazo[1,2-a]pyridin-6-yl)thiazol-2-yl]-2-oxa-6-azaspiro[3.3]heptane-6-carboxamide], the Ki was found to be 2550 nM in experiment [6], 0.4 nM in experiment [1], 0.15 nM in experiment [2] and 1.4 nM in experiment [3].

On to `Cc1cc(-c2sc(NC(=O)N3CC4(COC4)C3)nc2-c2cccc(C#N)c2)c2[nH]ncc2n1` [Example 23, N-[4-(3-Cyanophenyl)-5-(5-methyl-1H-pyrazolo[4,3-b]pyridin-7-yl)thiazol-2-yl]-2-oxa-6-azaspiro[3.3]heptane-6-carboxamide], for which the Ki in experiment [6] came out at 126 nM; in experiment [1], 467 nM; in experiment [2], 6.56 nM; in experiment [3], 1.6 nM.

Turning to `Cn1cnc2ccc(-c3sc(NC(=O)N4CC5(COC5)C4)nc3-c3cccc(C#N)c3)cc21` [Example 25, N-[4-(3-Cyanophenyl)-5-(3-methylbenzimidazol-5-yl)thiazol-2-yl]-2-oxa-6-azaspiro[3.3]heptane-6-carboxamide], the Ki in experiment [6] turned out to be 1730 nM; in experiment [1] it was 0.3 nM; in experiment [2], 0.07 nM; in experiment [3], 0.5 nM.

For the molecule `N#Cc1cccc(-c2nc(NC(=O)N3CC4(COC4)C3)sc2-c2ccc3nccn3c2)c1` [Example 26, N-[4-(3-Cyanophenyl)-5-imidazo[1,2-a]pyridin-6-yl-thiazol-2-yl]-2-oxa-6-azaspiro[3.3]heptane-6-carboxamide], the Ki in experiment [6] is 904 nM; in experiment [1], 0.3 nM; in experiment [2], 0.33 nM; in experiment [3], 0.5 nM.

On to `Cc1cc(-c2sc(NC(=O)N3CC4(COC4)C3)nc2-c2cccc(C#N)c2)cc2cn[nH]c12` [Example 27, N-[4-(3-Cyanophenyl)-5-(7-methyl-1H-indazol-5-yl)thiazol-2-yl]-2-oxa-6-azaspiro[3.3]heptane-6-carboxamide], for which the Ki in experiment [6] came out at 907 nM; in experiment [1], 0.5 nM; in experiment [2] it was 0.08 nM; in experiment [3], 2.9 nM.

In the case of `Cc1cc(-c2sc(NC(=O)N3CC4(COC4)C3)nc2-c2cccc(C#N)c2)cc2cn(C)nc12` [Example 28, N-[4-(3-Cyanophenyl)-5-(2,7-dimethylindazol-5-yl)thiazol-2-yl]-2-oxa-6-azaspiro[3.3]heptane-6-carboxamide], the Ki in experiment [6] came out at 628 nM; in experiment [1] it was 21 nM; in experiment [2], 8.4 nM; in experiment [3], 6.7 nM.

Regarding `Cc1cc(-c2sc(NC(=O)N3CC4(COC4)C3)nc2-c2cccc(C#N)c2)cnn1` [Example 31, N-[4-(3-Cyanophenyl)-5-(6-methylpyridazin-4-yl)thiazol-2-yl]-2-oxa-6-azaspiro[3.3]heptane-6-carboxamide], the Ki in experiment [6] came out at 1180 nM; in experiment [1], 57 nM; in experiment [2], 4.31 nM; in experiment [3], 38.7 nM.

As for `Cc1cc(-c2sc(NC(=O)N3CC4(COC4)C3)nc2-c2cccc(C#N)c2)cnc1-n1nccn1` [Example 32, N-[4-(3-Cyanophenyl)-5-[5-methyl-6-(triazol-2-yl)-3-pyridyl]thiazol-2-yl]-2-oxa-6-azaspiro[3.3]heptane-6-carboxamide], the Ki in experiment [6] was found to be 103 nM; in experiment [1], 272 nM; in experiment [2], 8.87 nM; in experiment [3], 136 nM.

As for `Cc1cc(-c2sc(NC(=O)N3CC4(COC4)C3)nc2-c2cccc(C#N)c2)c2cc[nH]c2n1` [Example 34, N-[4-(3-Cyanophenyl)-5-(6-methyl-1H-pyrrolo[2,3-b]pyridin-4-yl)thiazol-2-yl]-2-oxa-6-azaspiro[3.3]heptane-6-carboxamide], the Ki in experiment [6] was found to be 260 nM; in experiment [1] it was 290 nM; in experiment [2] it was 7.4 nM; in experiment [3] it was 7.6 nM.

Regarding `N#Cc1cccc(-c2nc(NC(=O)N3CC4(COC4)C3)sc2-c2ccc3ncoc3c2)c1` [Example 35, N-[5-(1,3-benzoxazol-6-yl)-4-(3-cyanophenyl)thiazol-2-yl]-2-oxa-6-azaspiro[3.3]heptane-6-carboxamide], the Ki worked out at 130 nM in experiment [6], 1.6 nM in experiment [1], 1.4 nM in experiment [2] and 1.6 nM in experiment [3].
